Key:
[1] = molecular target: T1, Amine oxidase [flavin-containing] A (Homo sapiens, UniProt P21397); test: Binding affinity to MAOA (unknown origin) using 7-(3-amino-propoxy)-coumarin as substrate after 3 hr by spectrofluorometric analysis
T1 sequence (P21397 whole entry): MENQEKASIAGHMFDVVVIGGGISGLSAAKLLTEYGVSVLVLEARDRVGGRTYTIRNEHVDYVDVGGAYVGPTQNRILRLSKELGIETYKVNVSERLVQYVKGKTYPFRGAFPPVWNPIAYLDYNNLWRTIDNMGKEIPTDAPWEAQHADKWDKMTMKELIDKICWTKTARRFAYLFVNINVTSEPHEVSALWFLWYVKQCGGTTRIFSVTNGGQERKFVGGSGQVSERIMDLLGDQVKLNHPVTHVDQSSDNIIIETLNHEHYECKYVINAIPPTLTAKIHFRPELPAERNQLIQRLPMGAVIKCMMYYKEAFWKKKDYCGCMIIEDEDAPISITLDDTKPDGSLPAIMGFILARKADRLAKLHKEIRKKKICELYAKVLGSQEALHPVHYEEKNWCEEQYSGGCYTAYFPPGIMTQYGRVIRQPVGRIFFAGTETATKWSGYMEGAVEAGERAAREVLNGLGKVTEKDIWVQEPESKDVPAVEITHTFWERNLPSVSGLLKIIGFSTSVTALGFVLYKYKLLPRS

[2] = molecular target: T2, Amine oxidase [flavin-containing] B (Homo sapiens, UniProt P27338); test: Binding affinity to MAOB (unknown origin) using 7-(3-amino-propoxy)-coumarin as substrate after 3 hr by spectrofluorometric analysis
T2 sequence (P27338 whole entry): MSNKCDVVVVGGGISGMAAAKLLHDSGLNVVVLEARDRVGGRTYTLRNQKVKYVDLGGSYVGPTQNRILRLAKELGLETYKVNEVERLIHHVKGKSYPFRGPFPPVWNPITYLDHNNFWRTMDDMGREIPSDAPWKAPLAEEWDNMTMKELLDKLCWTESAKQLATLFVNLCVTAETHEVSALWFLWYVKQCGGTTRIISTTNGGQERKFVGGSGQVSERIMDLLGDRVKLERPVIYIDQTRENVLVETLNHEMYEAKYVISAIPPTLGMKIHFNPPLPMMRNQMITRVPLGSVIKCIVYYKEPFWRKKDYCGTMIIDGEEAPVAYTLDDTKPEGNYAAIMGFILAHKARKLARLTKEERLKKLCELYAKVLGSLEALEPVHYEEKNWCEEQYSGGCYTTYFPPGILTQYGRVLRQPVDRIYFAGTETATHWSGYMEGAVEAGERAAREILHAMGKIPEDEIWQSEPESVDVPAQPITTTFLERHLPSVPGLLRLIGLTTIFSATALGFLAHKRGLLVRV

| SMILES | IC50 [1] [µM] | IC50 [2] [µM] |
| --- | --- | --- |
| NCCCCCCNCC(N)=O | 8.6 | 79.5 |
| CC(C)(C)OC(=O)NCCCCCCNCC(N)=O | 5.7 | 54.3 |

Reference: ChEMBL document CHEMBL3044909, “Design, synthesis, and evaluation of an activity-based probe for cellular imaging of monoamine oxidases” (Med Chem Res, 2012)
